{"source": "paper PMC7823449", "about": "(Antioxidants, 2020)", "key": {"[1]": {"assay": "Oxygen Radical Absorbance Capacity (ORAC) assay", "type": "biochemical", "details": "samples 100 μg/mL properly diluted, AAPH 100 mM, fluorescein 10 nM, 37 °C, pH 7.0; values only in Figure 7", "protocol": "The ORAC assay determined the fluorescence decrease of fluorescein (10 nM) after its oxidation in the presence of AAPH and the investigated samples (100 μg/mL) properly diluted, as previously reported [46, 47]. The assays were carried out at 37 °C, pH 7.0 recording fluorescence through a Wallac Victor 1420 Multilabel Counters fluorimeter (PerkinElmer, Waltham, MA, USA) (excitation λ = 540 nm, emission λ = 570 nm). Trolox (12.5 μM) and phosphate buffer were used as control standard and blank, respectively. The area under the quenching curve of fluorescein was used to calculate ORAC value of the investigated compounds using Origin®7 (OriginLab Corporation, Northampton, USA). ORAC Units, expressed as trolox micromole per microgram of sample (μmol/μg), were obtained according to Equation (2): ORAC value (μmol/μg) = K(S sample − S blank)/(S Trolox − S blank) (2) where K is the sample dilution factor, S the area under the fluorescence decay curve of sample, trolox or blank. Each experiment was performed in triplicate and data were expressed as mean ± SD"}, "[2]": {"assay": "Chemical stability (chemical hydrolysis) at different pH and temperature, HPLC of residual RSVTR", "type": "physicochemical", "details": "dark", "description": "The chemical hydrolysis of RSVTR was studied at pH 2.0 (0.2 N HCI), 6.8 and 7.2 (phosphate buffer solutions). All solutions containing the same amount of RSVTR (1.18 µM) were kept in the dark at a constant temperature of 37 °C, 22 °C, and 5 °C. At appropriate time intervals, chosen to obtain enough data to pinpoint the stability profile (0, 2, 4, 8, 24, 48, 72, 96, 168, 696 h at pH 7.2; 0, 2, 4, 8, 24, 48, 72, 96, 192, 528, 768 h at pH 6.8; 0, 2, 4, 8, 24, 48, 72, 96, 528 h at pH 2.0), samples were withdrawn and analyzed immediately by HPLC for the residual RSVTR.\nPseudo-first-order rate constants were determined from the slope of the linear portion of the graph obtained, plotting the logarithm of the residual amount of RSVTR against time. RSVTR half-life (t1/2) was calculated according to Equation (1): t1/2 = […] (1) where k is the pseudo-first-order rate constant.\nRSVTR was analyzed using an isocratic binary mobile phase consisting of 5% of acetonitrile and 95% of triethylamine 0.3% (v/v) in water (pH adjusted to 3.0 with trifluoroacetic acid). The flow rate was set at 1.0 mL/min and the column was maintained at 24 °C throughout the analysis. Chromatograms were acquired at 290 nm after analyzing RSVTR UV spectra in the range 200–400 nm and the retention time of RSVTR was approximately 5.40 min. The analytical method was validated according to ICH guidelines."}, "[3]": {"target": "T1, bovine serum albumin (BSA) (Bos taurus, UniProt P02769)", "T1 construct": "purchased Sigma-Aldrich S.r.l; (Milan, Italy)", "T1 sequence (P02769 25-607)": "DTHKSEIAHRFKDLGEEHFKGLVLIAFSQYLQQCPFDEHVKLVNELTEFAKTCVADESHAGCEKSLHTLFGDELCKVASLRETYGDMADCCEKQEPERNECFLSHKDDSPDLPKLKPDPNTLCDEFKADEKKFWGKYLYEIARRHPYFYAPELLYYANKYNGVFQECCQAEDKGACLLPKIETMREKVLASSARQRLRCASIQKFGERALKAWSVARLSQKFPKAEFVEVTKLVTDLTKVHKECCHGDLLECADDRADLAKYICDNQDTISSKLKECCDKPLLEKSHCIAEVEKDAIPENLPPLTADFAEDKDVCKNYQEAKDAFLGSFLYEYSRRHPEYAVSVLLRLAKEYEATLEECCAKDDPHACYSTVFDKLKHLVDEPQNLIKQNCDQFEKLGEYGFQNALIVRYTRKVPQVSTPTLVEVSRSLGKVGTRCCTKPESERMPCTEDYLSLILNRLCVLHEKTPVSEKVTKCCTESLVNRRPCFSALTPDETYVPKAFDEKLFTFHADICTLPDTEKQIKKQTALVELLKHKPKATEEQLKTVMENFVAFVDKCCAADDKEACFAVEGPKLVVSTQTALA", "assay": "Anti-glycation activity, AGEs formation through Maillard reaction (BSA + D-fructose)", "type": "biochemical", "details": "samples 400 μg/mL, BSA 10 mg/mL + D-fructose 0.5 M, pH 7.4, 37 °C, 7 days; values only in Figure 8", "description": "Protein model bovine serum albumin (BSA) (10 mg/mL) incubated with D-fructose (0.5 M) in phosphate buffer 50 mM, pH 7.4 and NaN3 0.02% was used as positive control. BSA alone was the negative control while aminoguanidine (AMG) (400 μg/mL) was used as a reference. Final glycated BSA solutions (300 μL), alone and with samples (400 μg/mL), were incubated at 37 °C in 96-well microtiter closed with their silicon lids for 7 days. The inhibition of fluorescence was determined using a Wallac Victor 1420 Multilabel Counters fluorimeter (PerkinElmer, Waltham, MA, USA) (λexc 370 nm; λem 440 nm). Relative fluorescence units (RFU) were recorded and the percentage of AGEs formation inhibition was calculated as follows (Equation (3)): % of inhibition = {1 − (RFU sample/RFU Positive control)} × 100 (3)\nEach experiment was performed in triplicate and data were expressed as mean ± SD Statistical analysis of the results was performed using Student’s t-test (p < 0.05)."}}}
{"smiles": "Cc1c(C)c2c(c(C)c1O)CCC(C)(C(=O)Oc1ccc(/C=C/c3cc(OC(=O)C4(C)CCc5c(C)c(O)c(C)c(C)c5O4)cc(OC(=O)C4(C)CCc5c(C)c(O)c(C)c(C)c5O4)c3)cc1)O2", "note": "(stereo not drawn) [RSVTR]", "values": [{"measurement": "Antioxidant activity (ORAC), result in words", "setting": "[1]", "result": "lower antioxidant capacity"}, {"measurement": "half-life at 1.18 µM", "setting": "[2]; 0.2 N HCl solution, pH 2, pH 2.0 (0.2 N HCl), 5 °C", "result": 19.2, "unit": "days"}, {"measurement": "half-life at 1.18 µM", "setting": "[2]; 0.2 N HCl solution, pH 2, pH 2.0 (0.2 N HCl), 22 °C", "result": 8.25, "unit": "days"}, {"measurement": "half-life at 1.18 µM", "setting": "[2]; 0.2 N HCl solution, pH 2, pH 2.0 (0.2 N HCl), 37 °C", "result": 5.54, "unit": "days"}, {"measurement": "half-life at 1.18 µM", "setting": "[2]; phosphate buffer, pH 6.8, pH 6.8 phosphate buffer, 5 °C", "result": 48.1, "unit": "days"}, {"measurement": "half-life at 1.18 µM", "setting": "[2]; phosphate buffer, pH 6.8, pH 6.8 phosphate buffer, 22 °C", "result": 36.1, "unit": "days"}, {"measurement": "half-life at 1.18 µM", "setting": "[2]; phosphate buffer, pH 6.8, pH 6.8 phosphate buffer, 37 °C", "result": 28.9, "unit": "days"}, {"measurement": "half-life at 1.18 µM", "setting": "[2]; phosphate buffer, pH 7.2, pH 7.2 phosphate buffer, 5 °C", "result": 72.2, "unit": "days"}, {"measurement": "half-life at 1.18 µM", "setting": "[2]; phosphate buffer, pH 7.2, pH 7.2 phosphate buffer, 22 °C", "result": 28.9, "unit": "days"}, {"measurement": "half-life at 1.18 µM", "setting": "[2]; phosphate buffer, pH 7.2, pH 7.2 phosphate buffer, 37 °C", "result": 12.5, "unit": "days"}, {"measurement": "Anti-glycation activity (inhibition of AGEs formation), result in words", "setting": "[3]", "result": "better anti-glycation agent than RSV"}, {"measurement": "melting point", "result": "113 to 116", "unit": "°C"}]}
